Source: patent US20130316963A1, “INNATE DEFENCE REGULATORY PEPTIDE COMPOSITIONS FOR TREATMENT OF ARTHRITIS” (UNIVERSITY OF MANITOBA, priority 2010, published 2013)

Assays:
Type in all cases: cell-based
[1] = test system: human FLS cells; assay: IL-IRA production in human FLS cells stimulated with IL-1β (ELISA); settings: 48 hr, FIG. 5
Protocol: Tissue culture supernatants were harvested from human FLS cells after stimulation for 48 hr with IL-1β with and without IDR-1002. The supernatants were centrifuged at 1500×g for 7 min to obtain cell-free samples. The samples were aliquoted and stored at −20° C. until further use. Production of IL-IRA in the tissue culture supernatants was monitored using Quantikine® human […] ELISA following the manufacturer's instructions. […] Results shown are an average of at least three independent biological experiments performed with cells isolated from synovial tissues obtained from independent donors±standard error (*p<0.05, **p<0.01).

[2] = test system: Human macrophage-like THP-1 cells; assay: TNF-α and IL-1β production in IL-32-stimulated THP-1 cells (ELISA); settings: 24 hr; for reduction of IL-32-induced TNF-α production: FIG. 7A; for reduction of IL-32-induced IL-1β production: FIG. 7B
Protocol: Human macrophage-like THP-1 cells were stimulated for 24 hr with pro-inflammatory cytokine IL-32 (20 ng/ml) in the presence and absence of IDR-1002 (10 or 20 μM). The tissue culture supernatants were monitored for the production of pro-inflammatory cytokines TNF-α and IL-1β after 24 hr by ELISA as described previously.

[3] = test system: p38 MAPK; assay: p38 MAPK activity assay (immunoprecipitation, ATF-2 Thr76 phosphorylation immunoblot) in human FLS cells; settings: IL-1β 10 ng/ml 15 min; IDR-1002 100 μg/ml 45 min prior to or at time of stimulation; FIG. 9
Protocol: Human FLS cells (5×10^4/ml) were seeded in a total volume of 20 ml per 75 cm^2 tissue culture flask in complete DMEM media containing 10% FBS for each condition. The cells were allowed to adhere overnight. Following day the media was changed to 10 ml complete DMEM containing 1% FBS. The cells were either un-stimulated or treated with IL-1β (10 ng/ml) in the presence or absence of IDR-1002 (100 μg/ml) for 15 min. IL-1β is known to induce JNK activation, and also p38 MAPK activity, after 15 min in FLS cells. Peptide IDR-1002 (100 μg/ml) was added either 45 min prior to, or at the time of stimulation with IL-1β. Total protein concentration was evaluated for each cell lysate employing micro BCA (Thermo Scientific). Kinase activities specific to JNK and to p38-MAPK were monitored employing the JNK activity assay kit and the p38 MAPK assay kit (Abcam Inc., Calif., USA) following the manufacturer's instructions. For JNK, 50 μg of total protein per cell lysate was used for immunoprecipitation employing a JNK-specific antibody. The eluate was treated with c-Jun substrate and ATP mixture. Subsequent phosporylation of c-Jun was evaluated by probing immunoblots with anti-phospho-c-Jun (Ser73) specific antibody. […] Subsequent phosporylation of ATF-2 was evaluated by probing immunoblots with a phospho-ATF-2 (Thr76) specific antibody. […]

VQRWLIVWRIRK (IDR-1002 peptide)
IL-IRA production with IL-1β in the presence of IDR-1002, relative to IL-1β in the presence of IDR-1 [1]: more than twice as much IL-IRA
IL-IRA production with IL-1β in the presence of IDR-1002, relative to IL-1β alone ([1]; IL-1β alone about 150 pg/ml): more than twice as much IL-IRA
IL-IRA production by IDR-1002 alone ([1]; no IL-1β): did not stimulate production of IL-IRA
reduction of IL-32-induced TNF-α production ([2]; 10 μM IDR-1002, IL-32 20 ng/ml): 40%
reduction of IL-32-induced IL-1β production ([2]; 10 μM IDR-1002, IL-32 20 ng/ml): about 40%
reduction of IL-32-induced TNF-α production ([2]; 20 μM IDR-1002, IL-32 20 ng/ml): about 70%
reduction of IL-32-induced IL-1β production ([2]; 20 μM IDR-1002, IL-32 20 ng/ml): about 65%
IL-1β-induced p38 MAPK activity and phosphorylation of ATF-2 (Thr76) [3]: abrogated
